Experiments:
[1] = test system: Botrytis cinerea; assay: Bean leaves inoculated with Botrytis cinerea; type: in vivo
[2] = test system: Botrytis cinerea; assay: B. cinerea spore viability / germination assay with resazurin; type: cell-based; conditions: for Concentration effective in vitro in inhibiting the germination of fungal spores with respect to the untreated control for at least 3 days: Botrytis cinerea; for Time for which spore germination of B. cinerea is inhibited: limited by duration of the experiment
[3] = test system: Penicillium expansum; assay: In vitro inhibition of fungal spore germination, Penicillium expansum; type: cell-based; conditions: for Concentration effective in vitro in inhibiting the germination of fungal spores with respect to the untreated control for at least 3 days: Penicillium expansum; for Time for which spore germination of P. expansum is inhibited: peptide at 15 μM, limited by duration of the experiment
[4] = test system: Fusarium graminearum; type: cell-based
[5] = test system: Penicillium digitatum; assay: In vitro inhibition of fungal spore germination, Penicillium digitatum; type: cell-based; conditions: for Concentration effective in vitro in inhibiting the germination of fungal spores with respect to the untreated control for at least 3 days: Penicillium digitatum; for Time for which spore germination of P. digitatum is inhibited: peptide at 15 μM, limited by duration of the experiment
[6] = test system: B. cinerea; assay: Rot symptoms from B. cinerea on vine leaves; type: in vivo, Botrytis cinerea; conditions: 50 μM
[7] = test system: Penicillium italicum; assay: In vitro inhibition of fungal spore germination, Penicillium italicum; type: cell-based; conditions: for Concentration effective in vitro in inhibiting the germination of fungal spores with respect to the untreated control for at least 3 days: Penicillium italicum; for Time for which spore germination of Penicillium italicum is inhibited: peptide at 15 μM, limited by duration of the experiment
[8] = test system: Pyricularia oryzae; type: cell-based
[9] = test system: Plasmopara viticola; conditions: for Prevention of development of the disease and production of sporangia of P. viticola: 50 μM aqueous solution, disks of vine leaves
Protocol: The histogram represents the average incidence (±standard error) of infections from P. viticola 12 days after inoculation obtained by performing at least 3 independent biological replicates. […] The incidence is calculated as a percentage ratio of the leaf disks showing the sporulation of the pathogen compared to the total of inoculated disks.
Glera vine leaves were inoculated with sporangia from the oomycete Plasmopara viticola, the causal agent of vine peronospora. The disks infected and then treated with peptides were incubated at 20/22° C. in conditions of high humidity (>92% RH) and in the dark (optimal conditions for the development of the disease) until the end of the experiment.

1-octanoyl-Aib-Gly-Leu-Aib-Lys(HCl)-Lys(HCl)-Leu-Aib-Gly-Ile-Leu-NH2 [PEP4-rink]
Reduction in the incidence of rot symptoms from B. cinerea on bean leaves ([1]; 15 μM, 7 days after inoculation): 90%
Reduction in the incidence of B. cinerea (rot symptoms) on bean leaves ([1]; 50 μM): 95%
Concentration effective in vitro in inhibiting the germination of fungal spores with respect to the untreated control for at least 3 days [2]: 3 µM
Time for which spore germination of B. cinerea is inhibited ([2]; peptide at 3 μM): at least 14 days
Time for which spore germination of B. cinerea is inhibited ([2]; peptide at 15 μM): at least 21 days
Concentration effective in vitro in inhibiting the germination of fungal spores with respect to the untreated control for at least 3 days [3]: 15 µM
Concentration effective in vitro in inhibiting the germination of fungal spores with respect to the untreated control for at least 3 days [4]: 15 µM
Concentration effective in vitro in inhibiting the germination of fungal spores with respect to the untreated control for at least 3 days [5]: 15 µM
Reduction in the incidence of rot symptoms from B. cinerea on vine leaves [6]: 70%

1-octanoyl-Aib-Lys(HCl)-Leu-Aib-Lys(HCl)-Gly-Leu-Aib-Gly-Ile-Lol [Peptide K25]
Concentration effective in vitro in inhibiting the germination of fungal spores with respect to the untreated control for at least 3 days [5]: 15 µM
Time for which spore germination of P. digitatum is inhibited [5]: of Penicillium digitatum for more than 5 days

1-octanoyl-Aib-Gly-Leu-Aib-Lys(HCl)-Lys(HCl)-Leu-Leu-NH2 [PEP4-corto1-rink]
Time for which spore germination of P. expansum is inhibited [3]: for 6 days (duration of the experiment)
Time for which spore germination of P. expansum is inhibited ([3]; listed as Pep4-cortol-rink): 6 days
Concentration effective in vitro in inhibiting the germination of fungal spores with respect to the untreated control for at least 3 days [7]: 15 µM
Time for which spore germination of Penicillium italicum is inhibited [7]: for 6 days (duration of the experiment)
Time for which spore germination of Penicillium italicum is inhibited ([7]; listed as Pep4-cortol-rink): 6 days
Time for which spore germination of P. digitatum is inhibited [5]: for 6 days (duration of the experiment)
Time for which spore germination of P. digitatum is inhibited ([5]; listed as Pep4-cortol-rink): 6 days

1-octanoyl-Aib-Gly-Leu-Aib-Gly-Lys(HCl)-Leu-Aib-Gly-Ile-Lol [Peptide K6-Lol]
Concentration effective in vitro in inhibiting the germination of fungal spores with respect to the untreated control for at least 3 days [2]: 15 µM
Concentration effective in vitro in inhibiting the germination of fungal spores with respect to the untreated control for at least 3 days [3]: 15 µM
Concentration effective in vitro in inhibiting the germination of fungal spores with respect to the untreated control for at least 3 days [5]: 15 µM

1-octanoyl-Aib-Lys(HCl)-Lys(HCl)-Leu-Aib-Gly-Ile-Leu-NH2 [PEP4-corto2-rink]
Time for which spore germination of B. cinerea is inhibited ([2]; peptide at 15 μM, listed as Pep4-corto2-rink): 8 days
Time for which spore germination of P. expansum is inhibited ([3]; listed as Pep4-corto2-rink): 15 days
Concentration effective in vitro in inhibiting the germination of fungal spores with respect to the untreated control for at least 3 days [7]: 15 µM
Time for which spore germination of Penicillium italicum is inhibited ([7]; listed as Pep4-corto2-rink): 15 days
Time for which spore germination of P. digitatum is inhibited ([5]; listed as Pep4-corto2-rink): 15 days

1-octanoyl-Aib-Gly-Leu-Aib-Lys(HCl)-Lys(HCl)-Leu-Aib-Gly-Ile-Lol [PEP4]
Protection of bean leaves against infection by Botrytis cinerea ([1]; 50 μM aqueous solution, for at least seven days (duration of the experiment)): protects the bean leaves against the infection caused by Botrytis cinerea
Concentration effective in vitro in inhibiting the germination of fungal spores with respect to the untreated control for at least 3 days [8]: 15 µM
Inhibition of spore germination of Pyricularia oryzae ([8]; 15 μM): effectively inhibit the spore germination
Germination of conidia of B. cinerea ([2]; 50 μM, conidia 5×10^5/ml in PDB): germination of the conidia is not observed
Concentration effective in vitro in inhibiting the germination of fungal spores with respect to the untreated control for at least 3 days [2]: 3 µM
Time for which spore germination of B. cinerea is inhibited ([2]; peptide at 3 μM): at least 7 days
Concentration effective in vitro in inhibiting the germination of fungal spores with respect to the untreated control for at least 3 days [3]: 15 µM
Concentration effective in vitro in inhibiting the germination of fungal spores with respect to the untreated control for at least 3 days [7]: 15 µM
Concentration effective in vitro in inhibiting the germination of fungal spores with respect to the untreated control for at least 3 days [5]: 15 µM
Incidence of the disease (leaf disks showing sporulation / total inoculated disks) ([9]; 30 μM, 12 days after inoculation): < 20%
Prevention of development of the disease and production of sporangia of P. viticola [9]: almost completely prevents both the development of the disease and the production of sporangia
Time of protection against P. viticola (no disease / no sporangia) ([9]; 50 μM, limited by duration of the experiment): 15 days

1-octanoyl-Aib-Gly-Leu-Aib-Lys(HCl)-Lys(HCl)-Leu-Lol [PEP4-corto]
Concentration effective in vitro in inhibiting the germination of fungal spores with respect to the untreated control for at least 3 days [2]: 3 µM
Prevention of development of the disease and production of sporangia of P. viticola [9]: almost completely prevents the development of the disease and the production of sporangia
